# Where a name gives a salt, the structure may show the parent alone. Read-outs that look alike come from different tables or passages of the source.
# Key:
# [1] = test system: Staphylococcus aureus ATCC 29213; settings: Publicly-known data, CLSI(M100-S16)2006 liquid dilution method; cited from earlier work
# [2] = test system: Staphylococcus aureus Methicillin resistant (MRSA) ATCC 43300; experiment: Evaluation test for disinfecting effect, broth dilution method CLSI(M7-A7)2006; assay type: cell-based
# Source text: (§1) The following test compounds were examined for the disinfecting activities against Pseudomonas aeruginosa, E.. Coli and staphylococcus aureus, according to a broth dilution method of "CLSI(M7-A7)2006" (Clinical and Laboratory Standards Institute, M7-A7, Methods for Dilution Antimicrobial Susceptibility Tests for Bacteria That Grow Aerobically; Approved Standard-Seventh Edition, 2006),
# (§2) • Pseudomonas aeruginosa PAO1 • Pseudomonas aeruginosa ATCC 27853 • Escherichia coli ATCC 25922 • Staphylococcus aureus ATCC 29213 • Staphylococcus aureus Methicillin resistant (MRSA) ATCC 43300
# (§3) Each of above-mentioned bacteria was inoculated in a TSB culture medium (Bacto TSB Broth, product of BD) for overnight cultivation at 37°C. The culture solution was applied to a TSB agar plate for about a 20-hour cultivation to form colonies. Three to five colonies were taken from the agar plate, and an average colony of them was inoculated in a 4mL TSB culture medium.. The colony was cultivated at 35°C until the number of microorganisms became 1 × 10^8 to 2 x 10^8 CFU/mL. The number of microorganisms with time was found by measuring changes in absorbency at 590nm of culture solution with time. When the turbidity became equivalent to 0.5 McFarland standard, it was determined that the number of microorganisms reached the target level = 1 × 10^8 to 2 × 10^8 CFU/mL.
# (§4) The bacillus culture solution thus obtained was diluted 10-fold within 15 minutes, and a 5µL portion was inoculated in each well of an evaluation 96-well microplate. This 96-well microplate was a sterilized 96-well microplate with U-shaped bottoms (Falcon 35-3918: product of BD), and each well was filled with a 100µL portion of MH culture medium (BBL MH Broth: product of BD). Within 15 minutes after inoculation of the bacillus culture solutions, the test compounds were supplied to the well in a manner of 2-fold graded dilution. The cultivation was then carried out at 37°C for 18 hours.
# (§5) The MIC was determined as follows. "S (susceptible)" indicates a concentration which caused 80% or more reduction in the diameter of the aggregation deposited in the bottom of the well, compared to when the test liquid is not used. "R (Resistant)" indicates a concentration that caused less than 80% reduction in diameter. The reduction was measured visually.. "I(Intermediate)" indicates a concentration that cannot be measured visually
# [3] = test system: Staphylococcus aureus ATCC 29213; experiment: as above; assay type: cell-based
# Source text: as §1, §2, §3, §4, §5
# [4] = test system: Pseudomonas aeruginosa ATCC 27853; experiment: as above; assay type: cell-based
# Source text: as §1, §2, §3, §4, §5
# [5] = test system: Pseudomonas aeruginosa PAO1; experiment: as above; assay type: cell-based
# Source text: as §1, §2, §3, §4, §5
# [6] = test system: Escherichia coli ATCC 25922; experiment: as above; assay type: cell-based
# Source text: as §1, §2, §3, §4, §5
# [7] = R (Resistant): concentration that caused less than 80% reduction in diameter of the aggregation, 37°C, 18 hours, read-out: MIC (µg/mL) R
# [8] = ATCC29213, R (Resistant): concentration that caused less than 80% reduction in diameter of the aggregation, 37°C, 18 hours, read-out: MIC (µg/mL) R
# [9] = ATCC29213, S (susceptible): concentration which caused 80% or more reduction in diameter of the aggregation, 37°C, 18 hours, read-out: MIC (µg/mL) S
# [10] = ATCC27853, I (Intermediate): concentration that cannot be measured visually, 37°C, 18 hours, read-out: MIC (µg/mL) I
# [11] = ATCC27853, R (Resistant): concentration that caused less than 80% reduction in diameter of the aggregation, 37°C, 18 hours, read-out: MIC (µg/mL) R
# [12] = ATCC27853, S (susceptible): concentration which caused 80% or more reduction in diameter of the aggregation, 37°C, 18 hours, read-out: MIC (µg/mL) S
# [13] = PAO1, R (Resistant): concentration that caused less than 80% reduction in diameter of the aggregation, 37°C, 18 hours, read-out: MIC (µg/mL) R
# [14] = PAO1, S (susceptible): concentration which caused 80% or more reduction in diameter of the aggregation, 37°C, 18 hours, read-out: MIC (µg/mL) S
# [15] = ATCC25922, I (Intermediate): concentration that cannot be measured visually, 37°C, 18 hours, read-out: MIC (µg/mL) I
# [16] = ATCC25922, R (Resistant): concentration that caused less than 80% reduction in diameter of the aggregation, 37°C, 18 hours, read-out: MIC (µg/mL) R
# [17] = ATCC25922, S (susceptible): concentration which caused 80% or more reduction in diameter of the aggregation, 37°C, 18 hours, read-out: MIC (µg/mL) S
# [18] = ATCC29213, 18 h, read-out: MIC (µg/mL) R
# [19] = ATCC29213, 18 h, read-out: MIC (µg/mL) S
# [20] = ATCC27853, 18 h, read-out: MIC (µg/mL) R
# [21] = ATCC27853, 18 h, read-out: MIC (µg/mL) S
# [22] = PAO1, 18 h, read-out: MIC (µg/mL) R
# [23] = PAO1, 18 h, read-out: MIC (µg/mL) S
# [24] = ATCC25922, 18 h, read-out: MIC (µg/mL) R
# [25] = ATCC25922, 18 h, read-out: MIC (µg/mL) S
Structure (SMILES),"MIC [2, 7]","MIC [3, 8]","MIC [3, 9]","MIC [4, 10]","MIC [4, 11]","MIC [4, 12]","MIC [5, 13]","MIC [5, 14]","MIC [6, 15]","MIC [6, 16]","MIC ([2]; 18 h, read-out: MIC (µg/mL) R)","MIC ([2]; 18 h, read-out: MIC (µg/mL) S)","MIC [3, 18]","MIC [3, 19]","MIC [4, 20]","MIC [4, 21]","MIC [5, 22]","MIC [5, 23]","MIC [6, 24]","MIC [6, 25]",other results
"CC[C@H]1OC(=O)[C@H](C)[C@@H](O[C@H]2C[C@@](C)(OC)[C@@H](O)[C@H](C)O2)[C@H](C)[C@@H](O[C@@H]2O[C@H](C)C[C@H](N(C)C)[C@H]2O)[C@](C)(O)C[C@@H](C)CN(C)[C@H](C)[C@@H](O)[C@]1(C)O [AZM, Azithromycin]",≤ 1020 µg/mL,≤ 0.5 µg/mL,≥ 2 µg/mL,64 µg/mL,≤ 32 µg/mL,≥ 128 µg/mL,≤ 32 µg/mL,≥ 128 µg/mL,4 µg/mL,≤ 2 µg/mL,,,,,,,,,,,"MIC (µg/mL) from M100-S16 [1]: 0.5 to 2 µg/mL; MIC ([3]; ATCC29213, I (Intermediate): concentration that cannot be measured visually, 37°C, 18 hours, read-out: MIC (µg/mL) I): 1 µg/mL; MIC ([5]; PAO1, I (Intermediate): concentration that cannot be measured visually, 37°C, 18 hours, read-out: MIC (µg/mL) I): 64 µg/mL; MIC [6, 17]: ≥ 8 µg/mL"
"CCCCCCCCCCCC(=O)NC1CCNC1 (centres unmarked) [Hydrochloride salt of Compound 1a-1, N-(pyrrolidin-3-yl) dodecanoyl amide]",,,,,,,,,,,≤ 4 µg/mL,≥ 16 µg/mL,≤ 4 µg/mL,≥ 16 µg/mL,≤ 32 µg/mL,≥ 128 µg/mL,≤ 32 µg/mL,≥ 128 µg/mL,≤ 4 µg/mL,≥ 16 µg/mL,"MIC ([2]; 18 h, read-out: MIC (µg/mL) I): 8 µg/mL; MIC ([3]; ATCC29213, 18 h, read-out: MIC (µg/mL) I): 8 µg/mL; MIC ([4]; ATCC27853, 18 h, read-out: MIC (µg/mL) I): 64 µg/mL; MIC ([5]; PAO1, 18 h, read-out: MIC (µg/mL) I): 64 µg/mL; MIC ([6]; ATCC25922, 18 h, read-out: MIC (µg/mL) I): 8 µg/mL"
"CC1(C)S[C@@H]2[C@H](NC(=O)C(C(=O)O)c3ccccc3)C(=O)N2[C@H]1C(=O)O (some centres unmarked) [CBPC, Carbenicillin]",≤ 16 µg/mL,≤ 8 µg/mL,≥ 16 µg/mL,128 µg/mL,≤ 64 µg/mL,≥ 256 µg/mL,≤ 64 µg/mL,≥ 128 µg/mL,16 µg/mL,≤ 8 µg/mL,,,,,,,,,,,"MIC ([2]; I (Intermediate): concentration that cannot be measured visually, 37°C, 18 hours, read-out: MIC (µg/mL) I): 32 µg/mL; MIC ([2]; S (susceptible): concentration which caused 80% or more reduction in diameter of the aggregation, 37°C, 18 hours, read-out: MIC (µg/mL) S): ≥ 64 µg/mL; MIC [6, 17]: ≥ 32 µg/mL"

# Further lines, with some results ahead:
"MIC [2, 7]","MIC [3, 8]","MIC [3, 9]","MIC [4, 10]","MIC [4, 11]","MIC [4, 12]","MIC [5, 13]","MIC [5, 14]","MIC [6, 15]","MIC [6, 16]","MIC ([2]; 18 h, read-out: MIC (µg/mL) R)","MIC ([2]; 18 h, read-out: MIC (µg/mL) S)","MIC [3, 18]","MIC [3, 19]","MIC [4, 20]","MIC [4, 21]","MIC [5, 22]","MIC [5, 23]","MIC [6, 24]","MIC [6, 25]",Structure (SMILES),other results
,,,,,,,,,,≤ 128 µg/mL,≥ 256 µg/mL,≤ 128 µg/mL,≥ 256 µg/mL,≤ 512 µg/mL,≥ 1020 µg/mL,≤ 512 µg/mL,≥ 1020 µg/mL,≤ 128 µg/mL,≥ 256 µg/mL,"CCCCCCCCCC(=O)NC1CCNCC1 [Hydrochloride salt of Compound 1b-2, N-(piperidin-4-yl) decanoyl amide]",
,,,,,,,,,,≤ 128 µg/mL,≥ 256 µg/mL,≤ 128 µg/mL,≥ 256 µg/mL,≤ 512 µg/mL,≥ 1020 µg/mL,≤ 512 µg/mL,≥ 1020 µg/mL,≤ 128 µg/mL,≥ 256 µg/mL,"CCCCCCCCCC(=O)NC1CCNC1 (centres unmarked) [Hydrochloride salt of Compound 1a-2, N-(pyrrolidin-3-yl) decanoyl amide]",

# — patent EP2077260B1, “AMIDE COMPOUND OR SALT THEREOF, AND BIOFILM FORMATION INHIBITOR, BIOFILM REMOVER AND BACTERICIDE EACH USING THE AMIDE COMPOUND OR SALT THEREOF” (The University of Tokyo, priority 2006, dated 2008)
